Assays:
Assay type in all cases: cell-based, C57BL/6 mice
islets [1] = test: Islet mitochondrial hyperpolarization by Rhodamine 123 fluorescence
Experimental: The effects of hypoxia and intermittent hypoxia preconditioning on calcium were paralleled by changes in insulin secretion and mitochondrial potential, as measured by off-chip insulin ELISA and Rhodamine 123 fluorescence, respectively. Insulin fractions were collected at 1 minute intervals during flow, with a stop-flow incubation period during the glucose exposure, as shown in FIG. 10A. The hypoxic pulse rendered insulin response down to basal levels (even drifting below baseline) while preconditioning improved insulin to 85% of normoxia while exposed to hypoxia. However, all insulin samples were collected in the same manner to account for this issue. Mitochondria hyperpolarization, monitored with Rhodamine uptake and self-quenching, was improved with IH preconditioning compared to hypoxia exposure alone. […] Islets were incubated in 100 μM diazoxide for 10 minutes and washed in Krebs buffer for 10 minutes prior to hypoxia and glucose stimulation. […] Both mitochondrial hyperpolarization and insulin secretion were improved with diazoxide compared to IH+5HD, as shown in FIG. 10B. […] All fluids perfused through the MIIH device were prepared in Krebs Ringer bicarbonate buffer: 129 mM NaCl, 5 mM NaHCO3, 4.7 mM KCl, 1.2 mM KH2PO4, 1 mM CaCl2.2H2O, 1.2 mM MgSO4.7H2O, 10 mM HEPES pH 7.35-7.40. […] FURA was excited at 340 and 380 nm and measured at 510 nm while Rho123 was excited at 495 nm and measured at 530 nm FURA measurements were expressed as a ratio of 340 nm over 380 nm intensities. […] The data was then normalized against the standard normoxic pulse to minimize variation between experiments and the results were expressed as “FURA Ratio %”. Rho123 measurement and the associated hyperpolarization drop were also analyzed similarly by normalizing against a normoxic standard. The insulin ELISA timepoints, measured in ng/mL, was expressed as an index of the maximum value over the baseline average to account for the stop flow during glucose/hypoxic incubation and also varying number of islets in the experiments. […]

islets [2] = test: Islet insulin secretion, off-chip insulin ELISA
Experimental: The effects of hypoxia and intermittent hypoxia preconditioning on calcium were paralleled by changes in insulin secretion and mitochondrial potential, as measured by off-chip insulin ELISA and Rhodamine 123 fluorescence, respectively. Insulin fractions were collected at 1 minute intervals during flow, with a stop-flow incubation period during the glucose exposure, as shown in FIG. 10A. The hypoxic pulse rendered insulin response down to basal levels (even drifting below baseline) while preconditioning improved insulin to 85% of normoxia while exposed to hypoxia. However, all insulin samples were collected in the same manner to account for this issue. Mitochondria hyperpolarization, monitored with Rhodamine uptake and self-quenching, was improved with IH preconditioning compared to hypoxia exposure alone. […] Islets were incubated in 100 μM diazoxide for 10 minutes and washed in Krebs buffer for 10 minutes prior to hypoxia and glucose stimulation. […] Both mitochondrial hyperpolarization and insulin secretion were improved with diazoxide compared to IH+5HD, as shown in FIG. 10B. […] Glucose and Krebs buffer flow were only introduced while washing or stimulating the islets, and flow was stopped at all other times. […] The plates were read in a Biotek Synergy 2 plate reader. […] FURA was excited at 340 and 380 nm and measured at 510 nm while Rho123 was excited at 495 nm and measured at 530 nm FURA measurements were expressed as a ratio of 340 nm over 380 nm intensities. […] The data was then normalized against the standard normoxic pulse to minimize variation between experiments and the results were expressed as “FURA Ratio %”. Rho123 measurement and the associated hyperpolarization drop were also analyzed similarly by normalizing against a normoxic standard. The insulin ELISA timepoints, measured in ng/mL, was expressed as an index of the maximum value over the baseline average to account for the stop flow during glucose/hypoxic incubation and also varying number of islets in the experiments. […]

islets [3] = test: Islet glucose-stimulated calcium response (FURA ratio) under hypoxia in microfluidic device
Experimental: To quantify their response to hypoxia, FURA-incubated islets were loaded into the multimodal device and exposed to 21%, 10%, and 5% oxygen while monitoring their calcium responses. In the GSIR mechanism, the calcium response correlates with insulin secretion, thus a stimulatory glucose pulse will result in a pulse in intracellular calcium. Under 21% oxygen flow, normoxic for ex vivo islets, the calcium responded with standard bi-phasic profile with magnitudes 1.3 times above their baseline, as shown in FIG. 8A. Note that subsequent hypoxic conditions were normalized against this normoxic pulse. When the islets were exposed to 5% hypoxia for 30 minutes (under zero flow), their calcium response lost both pulse magnitude as well as phase information. […] Quantitatively, the pulse height was depressed below 50% of the normoxic pulse, for both 10% and 5% hypoxia.
Islets were incubated in 100 μM diazoxide for 10 minutes and washed in Krebs buffer for 10 minutes prior to hypoxia and glucose stimulation. […] Both mitochondrial hyperpolarization and insulin secretion were improved with diazoxide compared to IH+5HD, as shown in FIG. 10B.
C57BL/6 mice were sacrificed as islet donors for the murine islet experiments. 5 ml collagenase P solution at 0.375 mg/ml in HBSS was prepared for each animal and kept on ice. The animal was euthanized with CO2 and 3% isoflurane followed by cervical dislocation to ensure no discomfort. The animal was disinfected with 70% ethanol before making a V-incision at the genital area and moving the bowel to clearly expose the bile duct. The ampulla on the surface of duodenum was clamped with a hemostat. The pancreas was then distended (inflated) through the bile duct with a 30-gauge needle with 5 ml syringe containing 2 ml of cold collagenase solution, starting at the gall bladder. The pancreas was then removed and placed in a 15 ml tube containing 2 ml of collagenase solution in a 37° C. water bath for 12 minutes. Then, 10 ml of cold HBSS was added to stop the digestion when 80% of the pancreas has disintegrated. […]

[4] = 100 μM diazoxide, 5% hypoxia, FIG. 10B
[5] = 100 μM diazoxide, not statistically significant

Row | SMILES | mitochondrial hyperpolarization with 5HD (islets [1]; IH plus 5HD) | preconditioned insulin response with 5HD (islets [2]; IH plus 5HD) | preconditioning of islets under hypoxia (FURA profile) (islets [3]; IH (1 m/1 m cycle, 60 min total) and 100 μM 5HD simultaneously) | mitochondrial hyperpolarization compared to IH+5HD (islets [1]; [4]) | mitochondrial hyperpolarization compared to IH preconditioning alone (islets [1]; [5]) | insulin secretion compared to IH+5HD (islets [2]; [4]) | insulin response compared to IH preconditioning alone (islets [2]; [5]) | preconditioning of islets under hypoxia (glucose calcium response) (islets [3]; 100 μM diazoxide 10 minutes, washed in Krebs buffer 10 minutes prior to 5% hypoxia and glucose stimulation) | calcium response compared to IH preconditioning alone (islets [3]; [5])
1 | CCCCCC(O)CCCC(=O)O (stereo not drawn) [5HD, 5-hydroxydecanoic acid] | decreased mitochondrial hyperpolarization | decoupling of preconditioned insulin response | failed to be preconditioned | – | – | – | – | – | –
2 | CC1=NS(=O)(=O)c2cc(Cl)ccc2N1 [diazoxide] | – | – | – | improved | less than that of IH preconditioning alone | improved | higher average | provided preconditioning benefits | higher average
